According to patent US5032573A, “Homologs of aprotinin produced from a recombinant host, process, expression vector and recombinant host therefor and pharmaceutical use thereof” (Bayer Aktiengesellschaft, priority 1989, dated 1991):
Values belong to the substance of their own block, whether it stands above or below them.

How the values were obtained:
Format in all cases: biochemical
porcine trypsin [1] = biological target: T1, porcine trypsin (Sus scrofa, UniProt P00761); experiment: Trypsin inhibition assay with Benzoyl-Arg-pNA as the substrate; conditions: for ΔE/10 minutes: control without inhibitor 0.91
T1 construct: purchased Merck 8350
Procedure: (§1) Glu-52-Aprotinin obtained after cleavage with BrCN was compared with authentic aprotinin for its inhibitory activity against porcine trypsin. Both substrates Pyrglu-Gly-Arg-pNA and Benzoyl-Arg-pNa were used for trypsin determination.
(§2) The stock solution for aprotinin was 1 μg/ml, and for Glu-52-aprotinin 0.6 μg/ml. 0-100-200-300-400-500 μl of this stock solutions were used in the test with Benzol-Arg-pNA. In the test with Pyrglu-Gly-Arg-pNA,0-3-6-9-12-15 μl were used.
(§3) Inhibition of trypsin was determined by means of either the substrate benzoyl-DL-arginine-p-nitroanilide (Merck 1670) or pyroglutamyl-glycyl-arginine-p-nitroanilide, which was synthesized from commercially available pyroglutamyl-glycine (SENN 6886) and arginine-p-nitroanilide×HBr (SENN 9123) by means of the dicyclohexyl carbodiimide condensation method. This substrate is also sold under the designation S-2444 by KABI as an urokinase substrate.
(§4) The former has the advantage of giving a linear response to the amount of Aprotinin in the sample, but has a low sensitivity. The latter one has a high sensitivity, but due to the dissociation of the aprotinin-trypsin-complex at those low concentrations, the dose-response-curve is non linear.
(§5) The buffer for the measurement of trypsin and trypsin inhibitors is 0.2M Tris, pH 8.0 containing 0.01M CaCl2 and 0.05% Tween 80®.
(§6) The determinations can be performed in any spectral photometer which allows readings of optical densities (ODs) at 400 nm. For fully automated measurements, the photometers have to be equipped with a micro processor or must be interfaced with a suitable personal computer.
(§7) Disposable 1 cm semi micro plastic cuvettes are used for all assays. ODs are read in time intervals of 1 minute over 8 cycles at ambient temperature. The average increase of OD per minute is arbitrarily taken as the activity unit.
(§8) For inhibition assays, porcine trypsin (Merck 8350) solution (in 0.001N HCl/50% glycerol) is mixed with the inhibitor sample, adjusted to 500 μl with buffer and incubated for 10 minutes at ambient temperature. The reaction is initiated by the addition of substrate solution. Inhibitory activities are taken from a calibration curve or automatically calculated by computer programs developed especially for this purpose. […]

porcine trypsin [2] = biological target: T1, porcine trypsin; experiment: Trypsin inhibition assay with Pyr-Glu-Gly-Arg-pNA as the substrate
Procedure: as §1, §2, §3, §4, §5, §6, §7, §8

anionic human Trypsin = anionic human Trypsin (Homo sapiens, UniProt P07478); experiment: Kinetic studies, Ki by the method of Empie and Laskowski
Procedure: (§9) The Ki values were determined by the method of M. W. Empie and M. Laskowski, Jr., Biochem. 21, 2274 (1982).

cationic human Trypsin = cationic human Trypsin (Homo sapiens, UniProt P07477); experiment: as above
Procedure: as §9

[3] = substrate Benzoyl-Arg-pNA, amount inhibitor per assay 300 ng
[4] = substrate Pyr-Glu-Gly-Arg-pNA, amount inhibitor per assay 9 ng, control without inhibitor 0.85 (aprotinin), 0.84 (Glu-52-aprotinin)

T1 sequence (P00761 9-231): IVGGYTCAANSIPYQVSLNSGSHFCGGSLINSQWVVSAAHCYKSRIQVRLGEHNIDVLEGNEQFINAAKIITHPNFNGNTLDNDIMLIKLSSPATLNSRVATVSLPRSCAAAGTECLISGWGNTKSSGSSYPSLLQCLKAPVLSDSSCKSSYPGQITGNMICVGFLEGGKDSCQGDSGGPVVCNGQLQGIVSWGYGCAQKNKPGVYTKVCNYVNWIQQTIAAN
Chain of anionic human Trypsin (P07478 24-247): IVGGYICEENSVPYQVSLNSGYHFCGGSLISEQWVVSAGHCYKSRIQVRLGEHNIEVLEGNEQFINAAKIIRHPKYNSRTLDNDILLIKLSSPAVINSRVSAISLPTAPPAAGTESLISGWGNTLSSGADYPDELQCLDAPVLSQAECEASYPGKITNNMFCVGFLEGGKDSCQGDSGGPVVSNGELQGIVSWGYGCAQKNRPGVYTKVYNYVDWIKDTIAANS

- ΔE/10 minutes (porcine trypsin [1]; substrate Benzoyl-Arg-pNA, amount inhibitor per assay 100 ng): 0.76
- ΔE/10 minutes (porcine trypsin [1]; substrate Benzoyl-Arg-pNA, amount inhibitor per assay 200 ng): 0.57
- ΔE/10 minutes (porcine trypsin [1]; [3]): 0.39
- ΔE/10 minutes (porcine trypsin [1]; substrate Benzoyl-Arg-pNA, amount inhibitor per assay 400 ng): 0.08
- ΔE/10 minutes (porcine trypsin [1]; substrate Benzoyl-Arg-pNA, amount inhibitor per assay 500 ng): 0.00
- ΔE/10 minutes (porcine trypsin [2]; substrate Pyr-Glu-Gly-Arg-pNA, amount inhibitor per assay 3 ng, control without inhibitor 0.85): 0.62
- ΔE/10 minutes (porcine trypsin [2]; substrate Pyr-Glu-Gly-Arg-pNA, amount inhibitor per assay 6 ng, control without inhibitor 0.85): 0.39
- ΔE/10 minutes (porcine trypsin [2]; [4]): 0.29
- ΔE/10 minutes (porcine trypsin [2]; substrate Pyr-Glu-Gly-Arg-pNA, amount inhibitor per assay 12 ng, control without inhibitor 0.85): 0.18
- ΔE/10 minutes (porcine trypsin [2]; substrate Pyr-Glu-Gly-Arg-pNA, amount inhibitor per assay 15 ng, control without inhibitor 0.85): 0.13
Substance: Aprotinin [reference compound]

- Ki (anionic human Trypsin): < 0.01 nM
- Ki (cationic human Trypsin): < 0.01 nM
Substance: Arg-15-Glu-52-aprotinin

- active molecules contained (porcine trypsin [1]; concluded from the trypsin inhibition dose-response curves against authentic aprotinin): ~100%
- trypsin inhibitory activity, dose-response curve compared with aprotinin (porcine trypsin [1]; substrate Benzoyl-Arg-pNA, FIG. 11): identical dose-response curves
- ΔE/10 minutes (porcine trypsin [1]; substrate Benzoyl-Arg-pNA, amount inhibitor per assay 60 ng): 0.77
- ΔE/10 minutes (porcine trypsin [1]; substrate Benzoyl-Arg-pNA, amount inhibitor per assay 120 ng): 0.68
- ΔE/10 minutes (porcine trypsin [1]; substrate Benzoyl-Arg-pNA, amount inhibitor per assay 180 ng): 0.58
- ΔE/10 minutes (porcine trypsin [1]; substrate Benzoyl-Arg-pNA, amount inhibitor per assay 240 ng): 0.44
- ΔE/10 minutes (porcine trypsin [1]; [3]): 0.30
- equilibrium constants of the trypsin-inhibitor complexes compared with aprotinin (porcine trypsin [2]; concluded from the trypsin inhibition dose-response curves): in the same order of magnitude
- trypsin inhibitory activity, dose-response curve compared with aprotinin (porcine trypsin [2]; substrate Pyr-Glu-Gly-Arg-pNA, FIG. 11): identical dose-response curves
- ΔE/10 minutes (porcine trypsin [2]; substrate Pyr-Glu-Gly-Arg-pNA, amount inhibitor per assay 1.8 ng, control without inhibitor 0.84): 0.67
- ΔE/10 minutes (porcine trypsin [2]; substrate Pyr-Glu-Gly-Arg-pNA, amount inhibitor per assay 3.6 ng, control without inhibitor 0.84): 0.56
- ΔE/10 minutes (porcine trypsin [2]; substrate Pyr-Glu-Gly-Arg-pNA, amount inhibitor per assay 5.4 ng, control without inhibitor 0.84): 0.47
- ΔE/10 minutes (porcine trypsin [2]; substrate Pyr-Glu-Gly-Arg-pNA, amount inhibitor per assay 7.2 ng, control without inhibitor 0.84): 0.32
- ΔE/10 minutes (porcine trypsin [2]; [4]): 0.28
Substance: Glu-52-aprotinin
